Assay results published in patent publication EP4603105A1, “PHARMACEUTICAL COMPOSITION CONTAINING CYCLIC COMPOUND HAVING SELECTIVE KRAS INHIBITORY EFFECT AGAINST HRAS AND NRAS” (CHUGAI SEIYAKU KABUSHIKI KAISHA, priority 2022, dated 2024).

Tests used:
[1] = molecular target: GDP-bound KRAS wild-type protein (Homo sapiens, UniProt P01116); experiment: Binding to KRAS by surface plasmon resonance (SPR), dissociation constant KD; details: Single Cycle Kinetics
Summary of the method: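 Read-out is KD from 1:1 fitting of single-cycle kinetics sensorgrams, blank-cycle and reference-surface corrected. Proteins were GDP-loaded, biotinylated Avi-fusions freshly captured each cycle at roughly 100–300 RU. Runs were at 30°C in HBS pH 7.4 with MgCl2, GDP and 4% DMSO.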

HRAS wild-type protein = HRAS wild-type protein (Homo sapiens, UniProt P01112); experiment: Binding to HRAS by surface plasmon resonance (SPR), KD and KD ratio to KRAS; details: ratio of KD for HRAS wild-type protein to KD for KRAS
Sequence of HRAS wild-type protein (P01112 whole entry): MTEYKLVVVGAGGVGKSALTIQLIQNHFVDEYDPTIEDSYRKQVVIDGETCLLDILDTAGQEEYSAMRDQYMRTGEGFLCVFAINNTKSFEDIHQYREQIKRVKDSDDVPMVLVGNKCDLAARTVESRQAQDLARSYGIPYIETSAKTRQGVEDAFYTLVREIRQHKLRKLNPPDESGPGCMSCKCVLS
Summary of the method: (§1)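 Biotinylated GDP-bound RAS was captured at about 100–300 RU. Running buffer: HBS pH 7.4, 10 mM MgCl2, 10 µM GDP, 1 mM DTT, 0.01% Tween 20, 4% DMSO.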

[2] = molecular target: GDP-bound NRAS wild-type protein (Homo sapiens, UniProt P01111); experiment: Binding to NRAS by surface plasmon resonance (SPR), KD and KD ratio to KRAS; details: ratio of KD for GDP-bound NRAS wild-type protein to KD for KRAS
Sequence of GDP-bound NRAS wild-type protein (P01111 whole entry): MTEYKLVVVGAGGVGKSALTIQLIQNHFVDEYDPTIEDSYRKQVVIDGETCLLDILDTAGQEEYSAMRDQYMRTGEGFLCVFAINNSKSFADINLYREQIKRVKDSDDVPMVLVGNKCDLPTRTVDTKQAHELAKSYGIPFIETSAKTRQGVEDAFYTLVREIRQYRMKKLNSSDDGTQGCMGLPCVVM
Summary of the method: as §1

[3] = system: human lung cancer strain NCI-H441; experiment: NCI-H441 cell proliferation inhibitory activity (CellTiter-Glo, 4 days); format: cell-based; details: NCI-H441 cells, 4 days, read-out: NCl-H441 IC50
Summary of the method: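 Step one: dispense the test compound in serial DMSO dilutions. Step three: add the reagent and measure […].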

Sequence of GDP-bound KRAS wild-type protein (P01116 1-188 isoform P01116-2): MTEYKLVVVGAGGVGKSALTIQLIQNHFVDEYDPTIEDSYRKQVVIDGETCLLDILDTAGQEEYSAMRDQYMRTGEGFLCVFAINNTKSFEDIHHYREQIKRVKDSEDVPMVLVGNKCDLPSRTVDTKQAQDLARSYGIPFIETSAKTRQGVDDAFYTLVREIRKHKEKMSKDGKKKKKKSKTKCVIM

| Compound | Kd [1] | HRAS /KRAS (HRAS wild-type protein) | NRAS /KRAS [2] | IC50 [3] |
| --- | --- | --- | --- | --- |
| CCCO[C@@H]1C[C@H]2C(=O)NC3(CC(C)(C)C3)C(=O)N(C)[C@@H](C3CCCC3)C(=O)N(C)[C@H](C(=O)N(C)CC)CC(=O)N(C)[C@@H](COCC)C(=O)N[C@@H]([C@@H](C)CC)C(=O)N3C[C@@H](F)C[C@H]3C(=O)N(C)[C@H]3C/C=C\CCN(C3=O)[C@@H](Cc3ccc(C)cc3)C(=O)N(C)CC(=O)N[C@@H](CCc3ccc(C(F)(F)F)c(Cl)c3)C(=O)N2C1 [PP3465] | 0.6 nM | A (a compound having 10 or more and less than 20 is denoted as A) | A (a compound having 10 or more and less than 20 is denoted as A) | 23.3 nM |
| CCCO[C@@H]1C[C@H]2C(=O)NC3(CC(C)(C)C3)C(=O)N(C)[C@@H](C3CCCC3)C(=O)N(C)[C@H](C(=O)N(C)CC)CC(=O)N(C)[C@@H](COCC)C(=O)N[C@@H]([C@@H](C)CC)C(=O)N(C3CC3)CC(=O)N(C)[C@H]3C/C=C\CCN(C3=O)[C@@H](Cc3ccc(C)cc3)C(=O)N(C)CC(=O)N[C@@H](CCc3ccc(C(F)(F)F)c(OC)c3)C(=O)N2C1 [PP3466] | 0.97 nM | B (a compound having 3 or more and less than 10 is denoted as B) | A (a compound having 10 or more and less than 20 is denoted as A) | 39.8 nM |
| CCCO[C@@H]1C[C@H]2C(=O)NC3(CC(C)(C)C3)C(=O)N(C)[C@@H](C3CCCC3)C(=O)N(C)[C@H](C(=O)N(C)CC)CC(=O)N(C)[C@@H](COCC)C(=O)N[C@@H]([C@@H](C)CC)C(=O)N3CCC[C@H]3C(=O)N(C)[C@H]3C/C=C\CCN(C3=O)[C@@H](Cc3ccc(C)cc3)C(=O)N(C)CC(=O)N[C@@H](CCc3ccc(C(F)(F)F)c(OC)c3)C(=O)N2C1 [PP3467] | 1.3 nM | A (a compound having 10 or more and less than 20 is denoted as A) | A (a compound having 10 or more and less than 20 is denoted as A) | 60.2 nM |
| CCCO[C@@H]1C[C@H]2C(=O)NC3(CC(C)(C)C3)C(=O)N(C)[C@@H](C3CCCC3)C(=O)N(C)[C@H](C(=O)N(C)CC)CC(=O)N(C)[C@@H](COCC)C(=O)N[C@@H]([C@@H](C)CC)C(=O)N3C[C@@H](C)C[C@H]3C(=O)N(C)[C@H]3C/C=C\CCN(C3=O)[C@@H](Cc3ccc(C)cc3)C(=O)N(C)CC(=O)N[C@@H](CCc3ccc(C(F)(F)F)c(OC)c3)C(=O)N2C1 [PP3468] | 3.4 nM | A (a compound having 10 or more and less than 20 is denoted as A) | B (a compound having 3 or more and less than 10 is denoted as B) | 137 nM |
| CCCO[C@@H]1C[C@H]2C(=O)NC3(CC(C)(C)C3)C(=O)N(C)[C@@H](C3CCCC3)C(=O)N(C)[C@H](C(=O)N(C)CC)CC(=O)N(C)[C@@H](COCC)C(=O)N[C@@H]([C@@H](C)CC)C(=O)N3C[C@@H](F)C[C@H]3C(=O)N(C)[C@H]3C/C=C\CCN(C3=O)[C@@H](Cc3ccc(C)cc3)C(=O)N(C)CC(=O)N[C@@H](CCc3ccc(C(F)(F)F)c(OC)c3)C(=O)N2C1 [PP3469] | 0.56 nM | A (a compound having 10 or more and less than 20 is denoted as A) | A (a compound having 10 or more and less than 20 is denoted as A) | 24.2 nM |
| CCCO[C@@H]1C[C@H]2C(=O)NC3(CC(C)(C)C3)C(=O)N(C)[C@@H](C3CCCC3)C(=O)N(C)[C@H](C(=O)N(C)CC)CC(=O)N(C)[C@@H](COCC)C(=O)N[C@@H]([C@@H](C)CC)C(=O)N(C3CC3)CC(=O)N(C)[C@H]3C/C=C\CCN(C3=O)[C@@H](Cc3ccc(C(F)(F)F)cc3)C(=O)N(C)CC(=O)N[C@@H](CCc3cc(F)c(C(F)(F)F)c(F)c3)C(=O)N2C1 [PP3470] | 0.61 nM | A (a compound having 10 or more and less than 20 is denoted as A) | A (a compound having 10 or more and less than 20 is denoted as A) | 12.2 nM |
| CCCO[C@@H]1C[C@H]2C(=O)NC3(CC(C)(C)C3)C(=O)N(C)[C@@H](C3CCCC3)C(=O)N(C)[C@H](C(=O)N(C)CC)CC(=O)N(C)[C@@H](COCC)C(=O)N[C@@H]([C@@H](C)CC)C(=O)N3CCC[C@H]3C(=O)N(C)[C@H]3C/C=C\CCN(C3=O)[C@@H](Cc3ccc(C(F)(F)F)cc3)C(=O)N(C)CC(=O)N[C@@H](CCc3cc(F)c(C(F)(F)F)c(F)c3)C(=O)N2C1 [PP3471] | 1.1 nM | A (a compound having 10 or more and less than 20 is denoted as A) | A (a compound having 10 or more and less than 20 is denoted as A) | 48.7 nM |
| CCCO[C@@H]1C[C@H]2C(=O)NC3(CC(C)(C)C3)C(=O)N(C)[C@@H](C3CCCC3)C(=O)N(C)[C@H](C(=O)N(C)CC)CC(=O)N(C)[C@@H](COCC)C(=O)N[C@@H]([C@@H](C)CC)C(=O)N3C[C@@H](C)C[C@H]3C(=O)N(C)[C@H]3C/C=C\CCN(C3=O)[C@@H](Cc3ccc(C(F)(F)F)cc3)C(=O)N(C)CC(=O)N[C@@H](CCc3cc(F)c(C(F)(F)F)c(F)c3)C(=O)N2C1 [PP3472] | 3 nM | A (a compound having 10 or more and less than 20 is denoted as A) | A (a compound having 10 or more and less than 20 is denoted as A) | 24.3 nM |
| CCC[C@H]1C(=O)N[C@@H]([C@@H](C)CC)C(=O)N(C2CC2)CC(=O)N(C)[C@H]2C/C=C\CCN(C2=O)[C@@H](Cc2ccc(C(F)(F)F)cc2)C(=O)N(C)CC(=O)N[C@@H](CCc2cc(F)c(C(F)(F)F)c(F)c2)C(=O)N2C[C@H](OCC)C[C@H]2C(=O)NC2(CCCC2)C(=O)N(C)[C@@H](C2CCCC2)C(=O)N(C)[C@H](C(=O)N(C)C)CC(=O)N1C [PP3473] | 0.53 nM | B (a compound having 3 or more and less than 10 is denoted as B) | AA (a compound having 20 or more is denoted as AA) | 13.5 nM |
| CCC[C@H]1C(=O)N[C@@H]([C@@H](C)CC)C(=O)N2CCC[C@H]2C(=O)N(C)[C@H]2C/C=C\CCN(C2=O)[C@@H](Cc2ccc(C(F)(F)F)cc2)C(=O)N(C)CC(=O)N[C@@H](CCc2cc(F)c(C(F)(F)F)c(F)c2)C(=O)N2C[C@H](OCC)C[C@H]2C(=O)NC2(CCCC2)C(=O)N(C)[C@@H](C2CCCC2)C(=O)N(C)[C@H](C(=O)N(C)C)CC(=O)N1C [PP3474] | 0.43 nM | A (a compound having 10 or more and less than 20 is denoted as A) | A (a compound having 10 or more and less than 20 is denoted as A) | 14.8 nM |
| CCO[C@@H]1C[C@H]2C(=O)NC3(CCCC3)C(=O)N(C)[C@@H](C3CCCC3)C(=O)N(C)[C@H](C(=O)N(C)C)CC(=O)N(C)[C@@H]([C@@H](C)OC)C(=O)N[C@@H]([C@@H](C)CC)C(=O)N(C3CC3)CC(=O)N(C)[C@H]3C/C=C\CCN(C3=O)[C@@H](Cc3ccc(C(F)(F)F)cc3)C(=O)N(C)CC(=O)N[C@@H](CCc3cc(F)c(C(F)(F)F)c(F)c3)C(=O)N2C1 [PP3476] | 0.37 nM | A (a compound having 10 or more and less than 20 is denoted as A) | A (a compound having 10 or more and less than 20 is denoted as A) | 15.2 nM |
| CCO[C@@H]1C[C@H]2C(=O)NC3(CCCC3)C(=O)N(C)[C@@H](C3CCCC3)C(=O)N(C)[C@H](C(=O)N(C)C)CC(=O)N(C)[C@@H]([C@@H](C)OC)C(=O)N[C@@H]([C@@H](C)CC)C(=O)N3CCC[C@H]3C(=O)N(C)[C@H]3C/C=C\CCN(C3=O)[C@@H](Cc3ccc(C(F)(F)F)cc3)C(=O)N(C)CC(=O)N[C@@H](CCc3cc(F)c(C(F)(F)F)c(F)c3)C(=O)N2C1 [PP3477] | 0.51 nM | A (a compound having 10 or more and less than 20 is denoted as A) | A (a compound having 10 or more and less than 20 is denoted as A) | 44.7 nM |
| CCC[C@H]1C(=O)N[C@@H]([C@@H](C)CC)C(=O)N(C2CC2)CC(=O)N(C)[C@H]2C/C=C\CCN(C2=O)[C@@H](Cc2ccc(C)cc2)C(=O)N(C)CC(=O)N[C@@H](CCc2cc(F)c(C(F)(F)F)c(F)c2)C(=O)N2C[C@H](OCC)C[C@H]2C(=O)NC2(CCCC2)C(=O)N(C)[C@@H](C2CCCC2)C(=O)N(C)[C@H](C(=O)N(C)C)CC(=O)N1C [PP3479] | 0.51 nM | A (a compound having 10 or more and less than 20 is denoted as A) | A (a compound having 10 or more and less than 20 is denoted as A) | 11.7 nM |
| CCC[C@H]1C(=O)N[C@@H]([C@@H](C)CC)C(=O)N2CCC[C@H]2C(=O)N(C)[C@H]2C/C=C\CCN(C2=O)[C@@H](Cc2ccc(C)cc2)C(=O)N(C)CC(=O)N[C@@H](CCc2cc(F)c(C(F)(F)F)c(F)c2)C(=O)N2C[C@H](OCC)C[C@H]2C(=O)NC2(CCCC2)C(=O)N(C)[C@@H](C2CCCC2)C(=O)N(C)[C@H](C(=O)N(C)C)CC(=O)N1C [PP3480] | 0.49 nM | A (a compound having 10 or more and less than 20 is denoted as A) | A (a compound having 10 or more and less than 20 is denoted as A) | 12.9 nM |
